Measurements: patent US10370637B2, “Technology for sustaining pluripotency and improved growth of stem cells in culture” (The Regents of the University of California, priority 2015, dated 2019)
Read-outs that look alike come from different tables or passages of the source.

Assays:
[1] = tested on: hESC colonies
Method: Colonies were incubated in mTeSR or mTeSR plus varying concentrations of NaOAc.3H2O.

[2] = tested on: H9 hESC; settings: H9 colony from another lab, mTeSR1 + 10 mM NaOAc.3H2O, 24 hours
[3] = tested on: human embryonic stem cells (hESC)
Method: FIG. 2 is a panel showing that the addition of NaOc.3H2O to hPSC culture medium rescued human embryonic stem cell cultures, improved attachment/spreading, and decreased cell death. […] (2E) Comparison of hESC attachment in mTeSR1 or mTeSR1+10 mM NaOAc.3H2O, (2F) Spreading of colonies in mTeSR1 only is poor; colonies are elevated, not flat, (2G) Spreading of colonies in mTeSR1+10 mM NaOAc.3H2O is improved; colonies are flatter and spread faster. (2H-2M) StemCellQC™ time-lapse video bioinformatics analysis of colonies grown in mTeSR1 only or mTeSR1+10 mM NaOAc. Colonies cultured in mTeSR1+10 mM NaOAc grow faster (2H and 2I), are rounder (normal morphology) (2J), have better motility (2K and 2L), and have fewer dead cells (2M).
This is very important and may be a factor in preventing unwanted differentiation. FIGS. 2H-M show video bioinformatics analysis of live hESC growing in vitro. This analysis was done on time-lapse images of living cultures and allows quantitative comparison between cells grown in different media.

[4] = tested on: hPSC colonies; settings: Essential-8 + 10 mM NaOAc.3H2O vs Essential-8 alone
[5] = tested on: hESC; settings: incubated in mTeSR plus NaOAc.3H2O, then transferred to differentiation medium
Method: (6A) Spontaneous differentiation of hESC incubated in mTeSR only then transferred to differentiation medium. […] (6B) hESC incubated in mTeSR plus NaOAc.3H2O, then transferred to differentiation medium.
These colonies were labeled with an antibody to Pax6, a marker for ectodermal differentiation.

[6] = tested on: human embryonic stem cells (hESC); remark: listed apart in the source
Excerpt: These are hallmarks of healthy pluripotent human embryonic stem cells (hESC) in culture. […] These are not normal pluripotent stem cell morphologies and are observed when colonies begin to differentiate.

[7] = mTeSR1 + 10 mM NaOAc vs mTeSR1 only

In the case of `CC(=O)[O-].O.O.O.[Na+]` [NaOAc.3H2O, sodium acetate trihydrate], the “Oct 4 fluorescence, concentration comparison” value ([1]; 10 μM concentration) is reported as “Fluorescence was strongest”, the Oct4A staining ([1]; mTeSR1 + 5 mM NaOAc) is reported as “Positive Oct4A staining” and the Oct4A staining ([1]; mTeSR1 + 10 mM NaOAc) is reported as “Positive Oct4A staining”. The Sox2 staining ([1]; mTeSR1 + 10 mM NaOAc) was “Positive Sox2 staining”, the “Oct 4 labeling (biomarker for pluripotency)” value ([1]; mTeSR plus varying concentrations of NaOAc.3H2O) was “bright labeling of Oct 4” and the colony morphology [2] was “round morphology with smooth edges”. For the same compound, the “brightness to area ratio (measurement of cell death)” value [3, 7] was “low brightness to area ratio”, the cell death [3, 7] was “Fewer cells died” and the colony motility [3, 7] was “Motility was greater”. For the same compound, the growth rate [3, 7] was “much faster”, the “solidity (colony roundness)” value [3, 7] was “closer to 1” and the “spreading of hESC colonies on the substrate” value ([3]; mTeSR1 + 10 mM NaOAc.3H2O vs mTeSR1) was “spread faster on the substrate”. For the same compound, the “attachment of cells to their substrate” value ([3]; mTeSR1 + 10 mM NaOAc.3H2O vs mTeSR1, modest but significantly different) was “enhanced the attachment of cells to their substrate”, the colony morphology [4] was “improved morphology” and the “Pax6 staining (ectodermal marker)” value [5] was “stained positively for Pax6”. For the same compound, the colony morphology ([6]; mTeSR + 1 mM NaOAc.3H2O) was “little effect on colony morphology”, the colony morphology ([6]; mTeSR + 5 or 10 mM NaOAc.3H2O) was “colony morphology was restored to normal” and the “passages without differentiation of colonies” value ([6]; passaged in mTeSR with the NaOAc.3H2O supplement) was “over 20 times”.
